According to patent publication US11840528B2 (Hoffmann-La Roche Inc., priority 2018, dated 2023):

Tests used:
[1] = molecular target: T1, h-GABA-A α5β3γ2 (Homo sapiens, UniProt P18507+P31644); test: [3H]flumazenil competition binding assay, membranes of HEK293 cells expressing GABAA receptors; conditions: displacement of [3H]-Flumazenil 0.5 nM, HEK293 cells expressing human receptors, mean of two determinations; Table 1
Experimental: The affinity of compounds at GABAA receptor subtypes was measured by competition for [3H]flumazenil (85 Ci/mmol; Roche) binding to HEK293 cells expressing rat (stably transfected) or human (transiently transfected) receptors of composition α1β3γ2, α2β3γ2, α3β3γ2 and α5β3γ2.
Cell pellets were suspended in Krebs-tris buffer (4.8 mM KCl, 1.2 mM CaCl2), 1.2 mM MgCl2, 120 mM NaCl, 15 mM Tris; pH 7.5; binding assay buffer), homogenized by polytron for ca. 20 sec on ice and centrifuged for 60 min at 4° C. (50000 g; Sorvall, rotor: SM24=20000 rpm). The cell pellets were resuspended in Krebs-tris buffer and homogenized by polytron for ca. 15 sec on ice. Protein was measured (Bradford method, Bio-Rad) and aliquots of 1 mL were prepared and stored at −80° C.
Assays were incubated to equilibrium for 1 hour at 4° C. and harvested onto GF/C uni-filters (Packard) by filtration using a Packard harvester and washing with ice-cold wash buffer (50 mM Tris; pH 7.5). After drying, filter-retained radioactivity was detected by liquid scintillation counting. Ki values were calculated using Excel-Fit (Microsoft) and are the means of two determinations.

[2] = molecular target: T1, h-GABA-A α5β3γ2; test: Two-electrode voltage clamp electrophysiology in Xenopus laevis oocytes expressing GABAA receptors, modulation of GABA EC20 current; type: cell-based; set-up: host or cells: Xenopus laevis oocytes micro-injected with RNA transcripts of the subunits
Experimental: Xenopus laevis oocytes at maturation stages V-VI were used for the expression of cloned mRNA encoding GABAA receptor subunits. Oocytes ready for RNA micro-injection were bought from Ecocyte, Castrop-Rauxel, Germany and stored in modified Barth's medium (composition in mM: NaCl 88, KCl 1, NaHCO32.4, HEPES 10, MgSO4 0.82, CaNO3 0.33, CaCl2 0.33, pH=7.5) at 20° C. until the experiment.
Oocytes were plated in 96-well plates to be used in an automated instrument (Robo-ocyte, MultiChannelSystems, Reutlingen, Germany) for microinjection and electrophysiological recordings. Approximately 50 nl of an aqueous solution containing the RNA transcripts for the subunits of the desired GABAA receptor was injected into each oocyte. RNA concentrations ranged between 0.3 and 16 ng/μl/subunit and were adjusted in pilot experiments to obtain GABA responses of a suitable size and a maximal effect of the reference modulator, Beta-CCM (β-CCM), a betacarboline negative allosteric modulator (NAM) at the GABAA receptor benzodiazepine (BZD) binding site or Midazolam, a benzodiazepine positive allosteric modulator (PAM) at the GABAA receptor benzodiazepine (BZD) binding site. The concentration of the γ2 subunit encoding RNA usually was 5- to 10-fold higher than the RNAs encoding the other subunits. Oocytes were kept in modified Barth's medium (composition in mM: NaCl 88, KCl 1, NaHCO3 4, HEPES 10, MgSO4 0.82, CaNO3 0.33, CaCl2) 0.33, pH=7.5) at 20° C. until the experiment.
Electrophysiological experiments were performed on days 3 to 5 after the micro-injection of mRNA. During the experiment the oocytes were constantly superfused by a solution containing (in mM) NaCl 90, KCl 1, HEPES 5, MgCl2 1, CaCl2) 1 (pH 7.4). Oocytes were impaled by two glass microelectrodes (resistance: 0.4 MΩ) which were filled with a solution containing KCl 1M+K-acetate 1.5 M and voltage-clamped to −80 mV. The recordings were performed at room temperature using the Roboocyte two-electrode voltage clamp system (Multichannelsystem). After an initial equilibration period of 1.5 min GABA was added for 1.5 min at a concentration evoking approximately 20% of a maximal current response (EC20). After another rest interval of 2.5 min GABA was again added evoking a response of similar amplitude and shape. 0.5 min after the onset of this second GABA application the test compound, at a concentration corresponding to approximatively 30 fold its Ki, was added while GABA was still present. Current traces were recorded at a digitization rate of 10 Hz during and shortly before and after the GABA application.
Each compound and concentration was tested on at least 3 oocytes. Different oocytes were used for different compound concentrations. β-CCM, a negative allosteric modulator, or Midazolam, a positive allosteric modulators, were tested on a few (3-6) oocytes on each 96-well plate for a positive control at a maximally effective. β-CCM inhibited the GABA-evoked current by approximatively 50% (Fold increase ˜0.5), while Midazolam potentiated the GABA-induced current by approximatively 150% (Fold increase ˜2.5).
For the analysis, the digitized current traces of the first and second GABA response were superimposed and, if necessary, rescaled to equal maximal amplitudes. The ratio between the two responses during the time interval of test compound application was calculated point by point. The extremum of the resulting “ratio trace” was taken as the efficacy (“Fold increase”) of the compound expressed as “% modulation of GABA EC20” (100*(Fold increase-1)).

[3] = % modulation of GABA EC20 = 100*(Fold increase-1), Table 1
[4] = test compound at approx. 30 fold its Ki, GABA at EC20, Table 1
[5] = positive control at a maximally effective concentration, 3-6 oocytes per plate

SMILES	Ki [1]	Efficacy (GABA) % [2, 3]	Fold increase h-GABA-A α5β3γ2 oocyte [2, 4]	Fold increase [2, 5]	potentiation of the GABA-induced current [2, 5]	Efficacy (GABA) % ([2]; reference compounds, % modulation of GABA EC20, Table 2)	Fold increase h-GABA-A α5β3γ2 oocyte ([2]; reference compounds, Table 2)	inhibition of the GABA-evoked current [2, 5]
Cc1ccc(-c2noc(C)c2Cn2ncc(N3C[C@H](C)O[C@@H](C)C3)cc2=O)cn1 (single isomer, unassigned) [Example 29, 5-[(2S,6S)-2,6-dimethylmorpholin-4-yl]-2-[[5-methyl-3-(6-methyl-3-pyridyl)isoxazol-4-yl]methyl]pyridazin-3-one or enantiomer]	1.4 nM	228%	3.28					
Cc1ccc(-c2noc(C)c2Cn2ncc(N3C[C@@H](C)O[C@H](C)C3)cc2=O)cn1 (single isomer, unassigned) [Example 30, 5-[(2R,6R)-2,6-dimethylmorpholin-4-yl]-2-[[5-methyl-3-(6-methyl-3-pyridyl)isoxazol-4-yl]methyl]pyridazin-3-one or enantiomer]	0.5 nM	216%	3.16					
Cc1ccc(-c2noc(C)c2Cn2ncc(N3CC4(CC(C)CO4)C3)cc2=O)nn1 (single isomer, unassigned) [Example 240, 2-[[5-methyl-3-(6-methylpyridazin-3-yl)isoxazol-4-yl]methyl]-5-[(7R)-7-methyl-5-oxa-2-azaspiro[3.4]octan-2-yl]pyridazin-3-one or enantiomer]	5.7 nM	94%	1.94					
Cc1ccc(-c2noc(C)c2Cn2ncc(N3CC4(CC(C)CO4)C3)cc2=O)nn1 (single isomer, unassigned) [Example 241, 2-[[5-methyl-3-(6-methylpyridazin-3-yl)isoxazol-4-yl]methyl]-5-[(7S)-7-methyl-5-oxa-2-azaspiro[3.4]octan-2-yl]pyridazin-3-one or enantiomer]	5.4 nM	80%	1.8					
Cc1onc(-c2ccc(Cl)nc2)c1Cn1ncc(N2CC(OC(C)C(F)(F)F)C2)cc1=O (single isomer, unassigned) [Example 265]	25.8 nM	155%	2.55					
Cc1onc(-c2ccc(Cl)nc2)c1Cn1ncc(N2CC(OC(C)C(F)(F)F)C2)cc1=O (single isomer, unassigned) [Example 266]	35.8 nM	136%	2.36					
Cc1ccc(-c2noc(C)c2Cn2ncc(N3CC4(CC(F)CCO4)C3)cc2=O)cn1 (single isomer, unassigned) [Example 273]	30 nM	126%	2.26					
Cc1ccc(-c2noc(C)c2Cn2ncc(N3CC4(CC(F)CCO4)C3)cc2=O)cn1 (single isomer, unassigned) [Example 274]	15.8 nM	110%	2.1					
Cc1ccc(-c2noc(C)c2Cn2ncc(N3CC4(CCC(F)CO4)C3)cc2=O)cn1 (single isomer, unassigned) [Example 275]	4.6 nM	89%	1.89					
Cc1ccc(-c2noc(C)c2Cn2ncc(N3CC4(CCC(F)CO4)C3)cc2=O)cn1 (single isomer, unassigned) [Example 276]	36.2 nM	102%	2.02					
Cc1ccc(-c2noc(C)c2Cn2ncc(N3CC4(CC(F)CCO4)C3)cc2=O)nn1 (single isomer, unassigned) [Example 287]	3.8 nM	77%	1.77					
Cc1ccc(-c2noc(C)c2Cn2ncc(N3CC4(CCC(F)CO4)C3)cc2=O)nn1 (single isomer, unassigned) [Example 288]	3.2 nM	63%	1.63					
Cc1onc(-c2ccc(Cl)nc2)c1Cn1ncc(N2CC3(CC(F)CCO3)C2)cc1=O (single isomer, unassigned) [Example 296, (R or S)-2-((3-(6-chloropyridin-3-yl)-5-methylisoxazol-4-yl)methyl)-5-(8-fluoro-5-oxa-2-azaspiro[3.5]nonan-2-yl)pyridazin-3(2H)-one]	27.7 nM	84%	1.84					
Cc1onc(-c2ccc(Cl)nc2)c1Cn1ncc(N2CC3(CCC(F)CO3)C2)cc1=O (single isomer, unassigned) [Example 297]	10.7 nM	130%	2.3					
Cc1onc(-c2ccc(Cl)nc2)c1Cn1ncc(N2CC3(CCC(F)CO3)C2)cc1=O (single isomer, unassigned) [Example 298]	25.4 nM	116%	2.16					
Cc1ccc(-c2noc(C)c2Cn2ncc(N3CC4(CC(C(F)(F)F)CCO4)C3)cc2=O)nn1 (single isomer, unassigned) [Example 311]	2.4 nM	88%	1.88					
Cc1ccc(-c2noc(C)c2Cn2ncc(N3CC4(CC(C(F)(F)F)CCO4)C3)cc2=O)nn1 (single isomer, unassigned) [Example 312]	6.5 nM	127%	2.27					
Cc1ccc(-c2noc(C)c2Cn2ncc(N3CC4(CCC(C)CO4)C3)cc2=O)nn1 (single isomer, unassigned) [Example 313]	7.9 nM	103%	2.03					
Cc1ccc(-c2noc(C)c2Cn2ncc(N3CC4(CC(C)CCO4)C3)cc2=O)nn1 (single isomer, unassigned) [Example 317]	4.9 nM	68%	1.68					
Cc1ccc(-c2noc(C)c2Cn2ncc(N3CC4(CC(C)CCO4)C3)cc2=O)nn1 (single isomer, unassigned) [Example 318]	5.6 nM	111%	2.11					
Cc1ccc(-c2noc(C)c2Cn2ncc(N3CC4(CCC(F)CO4)C3)cc2=O)nn1 (single isomer, unassigned) [Example 319]	1 nM	91%	1.91					
Cc1ncc2n1-c1ccc(Cl)cc1C(c1ccccc1F)=NC2 [Midazolam, reference compound]				~2.5	~150%			
Cc1onc(-c2ccc(Cl)cn2)c1COc1ccc(C(=O)N2CCOCC2)cn1 [RO-309, reference compound]						−17%	0.83	
COC(=O)c1cc2c(cn1)[nH]c1ccccc12 [β-CCM, reference compound]				~0.5				~50%
